The results in this text go back to US8188296B2, “Gentisic acid for stabilising 123-I radiopharmaceuticals” (GE Healthcare Limited, priority 2005, dated 2012).

Holding throughout (format): physicochemical
Data set [1] can be described thus: Radiochemical purity (TLC) of 123I-IBZM solutions stored at ambient temperature, GA vs AA stabiliser (Example 1). As to conditions: at the moment of use; stabiliser named as label. The procedure: ^123I-IBZM was prepared by the method of Bobeldijk et al [J. Lab. Comp. Radiopharm., 28, 1247-1256 (1990)]. A small series of ^123I-IBZM solutions was prepared: to each vial 200 μl of ^123I-IBZM in EtOH (925 MBq/cm^3) was added and subsequently 2.3 ml of aqueous phosphate buffer solution optionally containing a stabiliser, in such a way that the resulting ethanol content was 8% and the radioactive concentration at calibration time was 74 MBq/cm^3 (2 mCi/ml).
The vials were stored at ambient temperature and the radiochemical purity (RCP) was determined by thin layer chromatography (TLC) at the time of dilution with phosphate buffer and at 24 and 48 hours afterwards.

The nature of data set [2]: Discolouration / heat sterilisation stability of stabiliser stock solutions. An excerpt: A preferred biocompatible carrier medium for the stabiliser stock solution comprises an aqueous solution at a pH suitable for intravenous administration. A preferred such aqueous solution is a buffer solution, most preferably phosphate buffer. When the radiopharmaceutical is ^123I-IBZM, the pH of the buffered stock solution is suitably pH 5 to 8, preferably 5.4 to 7, most preferably 5.7 to 6.3. As noted above, gentisic acid solutions tend to suffer from discoloration problems. […] The stock solutions may be prepared under non-sterile conditions, followed by terminal sterilisation using e.g. gamma-irradiation, autoclaving, dry heat or chemical treatment (e.g. with ethylene oxide). Alternatively, the stock solutions may be prepared under aseptic manufacture conditions to give the desired sterile, pyrogen-free product. Preferably the sterile stock solutions are prepared by terminal sterilisation, most preferably by autoclaving. Such autoclaving involves steam heating at over 121° C., so represents stress conditions wherein unwanted chemical reactions might be expected. […] It is therefore surprising that the lack of discolouration for gentisic acid can be maintained under such conditions.

Data set [3] is described as follows: Radiochemical purity of 123I-IBZM solutions made with autoclaved stabiliser stock solutions (Example 3). Particulars: stock solution sterilised in an autoclave at 121 °C. On the procedure:
Stock solutions of the stabilisers shown were prepared, purged with argon gas and then sealed under argon in a septum-sealed vial with a Teflon™ coated rubber stopper.
The solutions were sterilised by autoclaving for 15 minutes at 121° C., and then allowed to cool to ambient temperature before use.
A small series of ^123I-IBZM solutions was prepared: to each vial ^123I-IBZM in EtOH (925 MBq/cm^3) was added and subsequently an aqueous phosphate buffer solution containing a stabiliser as specified in Table 3 (below), in such a way that the resulting ethanol content was 8% and the radioactive concentration at calibration time was 74 MBq/cm^3 (2 mCi/ml). The RCP of each vial was determined 3 hours after preparation and after storage at room temperature for 51 hours.

Data set [4] in a line: Radiochemical purity of 123I-mIBG in phosphate buffer with stabilisers (Example 5). As to conditions: compared with benzyl alcohol. On the procedure: Two series of 5 vials of ^123I-mIBG solutions were prepared: to each vial an aliquot of 0.5 cm^3 of freshly prepared ^123I-mIBG in (stabiliser-free) Phosphate buffer (360 MBq/cm^3) was added and subsequently an aliquot of 2.0 cm^3 of an aqueous phosphate buffer solution containing a stabiliser as specified in Table 4 (below), followed by mixing. The final mixtures were not heat sterilized. The total activity per vial was 185 MBq with an RAC of 74 MBq/ml. The specific activity was 992 GBq/g mIBG base. Vials A1 to E1 were stored at 40° C. and vials A2 to E2 at 20° C. The RCP was determined at the EOS (end of synthesis) and at 3, 20 and 45 hours thereafter.

The nature of data set [5]: Radiochemical purity of 123I-IBZM vs gentisic acid concentration in stock solution (Example 4, FIG. 1). Particulars: 0 to 0.39% w/v gentisic acid, pH 5.8, 74 MBq/ml, room temperature.
Description: A phosphate buffer solution (300 ml) was divided into 6 vials each of 50 ml with various amounts of gentisic acid, corresponding to w/v concentrations of 0%, 0.024%, 0.050%, 0.10%, 0.20% and 0.39%. The pH was checked, and if necessary adjusted by the addition of NaOH to obtain a pH of 5.8 (±0.1). The vials were stoppered with Teflon™ coated rubber stoppers and sterilised for 15 min at 121° C.
An ethanolic solution of ^123I-IBZM (activity concentration at REF: 925 MBq/ml (25 mCi/ml)) was divided over 6 vials and into each was added an aliquot of the 6 gentisic acid buffer solutions from step (a) to obtain a final solution with a total activity content of 185 MBq (5 mCi), at a RAC of 74 MBq/ml (2 mCi/ml) and an ethanol content of 8%. The vials were stoppered with a Teflon™ coated rubber stopper and stored at room temperature. The RCP was measured at various time points after EOS.

Take `O=C1O[C@H]([C@@H](O)CO)C(O)=C1O` [ascorbic acid, reference compound]: the “principal radiochemical impurity (free 123I-iodide) in the 123I-IBZM preparation” value in data set [1] was in the range of 4 to 5%. In data set [2] (buffer solution), the “stability to heat sterilisation (autoclaving, over 121 °C) in buffer solution” value is reported as “does not withstand such heat sterilisation in buffer solution”.
With `O=C(O)c1cc(O)ccc1O` [gentisic acid, 2,5-dihydroxybenzoic acid], the “principal radiochemical impurity (free 123I-iodide) in the 123I-IBZM preparation” value in data set [1] was 2 to 3%. Also, in data set [3], the “stabilisation of 123I-IBZM (in words)” value is “still an effective stabiliser”. The “discolouration of sterile solutions in aqueous buffer on storage” value in data set [2] (oxygen gas in the environment minimised) is reported as “do not discolour even on storage for more than a year”. The “discolouration of solutions on autoclave sterilisation” value in data set [2] (oxygen not excluded, autoclave) is recorded as “visible discolouration does occur”. In addition, the “stabilisation of 123I-MIBG (in words)” value in data set [4] is recorded as “effective at much lower concentrations than benzyl alcohol”. Also, the “stabilisation of 123I-IBZM vs stabiliser concentration (in words)” value in data set [5] is reported as “little or no additional stabilisation benefit is obtained”.
